These results are taken from ChEMBL document CHEMBL1201862, “PubChem BioAssay data set” (2004).

The structures appear in SMILES notation.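 A five-concentration, 48-hour dose response in 96-well plates underlies each endpoint, interpolated linearly between surrounding concentrations. Abbreviation: GI50, concentration required for 50% inhibition of growth.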 The source made the active and inactive calls. No stated cut-off is given here; in the data, active = GI50 up to about 1.1 µM and inactive = higher. Square brackets hold non-standard residues; d marks the D form. Peptide text beside a SMILES is read from it. * marks the point of attachment. X26 = COC1=CC(=O)N(C(=O)[C@@H](O*)C(C)C)[C@H]1Cc1ccccc1; NMeV = CN[C@H](C(=O)O)C(C)C; Hexanoyl = CCCCCC(=O)*

What all share (experiment): inhibition of tumour cell growth, NCI panel, 48 h
Assay [1] has as its system COLO 205.
Assay [2] has as its system SK-MEL-28.
For assay [3], the system named is HCT-15.
Assay [4] deals with OVCAR-8.
The test system of assay [5] is HCT-116.
Assay [6] concerns SNB-19.
The subject of assay [7] is SNB-75.
Assay [8] concerns A549.
Assay [9] has as its system T47D.
Assay [10] deals with OVCAR-3.
Assay [11] has as its system UO-31.
The test system of assay [12] is A498.
The subject of assay [13] is OVCAR-4.
The subject of assay [14] is 786-0.
Assay [15] has as its system SF-295.
In assay [16] the test system is UACC-257.
The subject of assay [17] is PC-3.
The test system of assay [18] is SK-MEL-2.
For assay [19], the system named is M14.
The test system of assay [20] is UACC-62.

With `CC(C)(C)N1C=[N+](C(C)(C)C)CC1`, the GI50 is > 100 µM (inactive) in assay [1]; > 100 µM (inactive) in assay [2]; more than 100 µM in assay [3]; > 100 µM (inactive) in assay [4]; > 100 µM (inactive) in [5]; > 100 µM (inactive) in [6]. In addition, the GI50 in assay [7] was 75 µM (inactive); in assay [8], > 100 µM (inactive); in assay [9] it was > 100 µM (inactive); in assay [10], > 100 µM (inactive); in assay [11], > 100 µM (inactive); in [12], 38.7 µM (inactive). The GI50 in assay [13], in assay [14], in [15], in assay [16], in assay [17] and in assay [18] was > 100 µM (inactive) in each case. In addition, the GI50 in assay [19] is > 100 µM (inactive).
`O=C1N/C(=N/N=C/C(O)C(O)C(O)C(O)CO)N/C1=C\c1ccco1` (configuration not stated): the GI50 was > 100 µM (inactive) in assay [1]; > 100 µM (inactive) in [2]; more than 100 µM in [3]; > 100 µM (inactive) in [4]; > 100 µM (inactive) in assay [5]; > 100 µM (inactive) in assay [6]. Also, the GI50 in assay [7], in [20], in [8], in assay [9], in [10] and in assay [12] was > 100 µM (inactive) throughout. Moreover, the GI50 was > 100 µM (inactive) in assay [13]; > 100 µM (inactive) in assay [14]; > 100 µM (inactive) in assay [15]; > 100 µM (inactive) in assay [16]; 32.3 µM (inactive) in [17]; 93.8 µM (inactive) in assay [18]. For the same compound, the GI50 in assay [19] is > 100 µM (inactive).
For the compound `COc1cccc2c(=O)oc(-c3ccccc3C)nc12`, the GI50 in assay [1] is 39.8 µM (inactive); in [2], 29.3 µM (inactive); in assay [3], 43.9 µM; in assay [4], 48.8 µM (inactive); in assay [5], 29.5 µM (inactive); in [7] it was > 100 µM (inactive). In addition, the GI50 is 62.1 µM (inactive) in [20]; 38.2 µM (inactive) in assay [8]; > 100 µM (inactive) in assay [9]; 29 µM (inactive) in assay [10]; 58.3 µM (inactive) in assay [11]; > 100 µM (inactive) in assay [12]. In addition, the GI50 in assay [13] was 22.7 µM (inactive); in [14] it was 44.8 µM (inactive); in [15], 42.6 µM (inactive); in assay [17], 35.7 µM (inactive); in assay [18] it was 26.6 µM (inactive).
Take `N#Cc1ccc(/N=N/N2CCCC2)cc1`: the GI50 is > 100 µM (inactive) in [1]; more than 100 µM in [3]; > 100 µM (inactive) in assay [4]; > 100 µM (inactive) in assay [5]; > 100 µM (inactive) in assay [6]; > 100 µM (inactive) in assay [7]. The GI50 is > 100 µM (inactive) in assay [20]; > 100 µM (inactive) in assay [9]; > 100 µM (inactive) in assay [10]; 69.8 µM (inactive) in assay [11]; 96.8 µM (inactive) in assay [12]; 98.9 µM (inactive) in [13]. Further, the GI50 in assay [14] is > 100 µM (inactive); in [15], > 100 µM (inactive); in [16] it was > 100 µM (inactive); in assay [17], 83.8 µM (inactive); in assay [18], > 100 µM (inactive); in [19], > 100 µM (inactive).
`C=CCN1C[C@H](C)N([C@@H](c2ccc(C(=O)N3CCCCC3)cc2)c2cccc(OC)c2)C[C@H]1C`: the GI50 in [1] is 16.6 µM (inactive); in [3], 29.6 µM; in [4], 43.7 µM (inactive); in assay [5], 28.6 µM (inactive); in assay [6], 50.5 µM (inactive); in assay [7], 40 µM (inactive). The GI50 in assay [20] is 21.5 µM (inactive); in assay [8], 30.5 µM (inactive); in assay [9] it was 24.5 µM (inactive); in assay [10], 49.2 µM (inactive); in [11], 24.4 µM (inactive); in [12], 29.4 µM (inactive). The GI50 was 56.4 µM (inactive) in assay [13]; 37.9 µM (inactive) in assay [14]; 45.2 µM (inactive) in [15]; 21.2 µM (inactive) in assay [16]; 21.9 µM (inactive) in assay [17]; 22.2 µM (inactive) in assay [18]. For the same compound, the GI50 in assay [19] is 17.4 µM (inactive).
As to `C=CCOC(=O)N1[C@H]2C#C/C=C\C#C[C@]3(O)C(=O)C[C@H](C)[C@]24O[C@]43C2=CC(=O)C=CC21OC` (some centres not stated), the GI50 is 13.6 µM (inactive) in assay [1]; 95.9 µM (inactive) in assay [2]; 31.4 µM in assay [3]; 22.5 µM (inactive) in assay [4]; 19.8 µM (inactive) in assay [5]; 38.3 µM (inactive) in assay [6]. The GI50 is 35.2 µM (inactive) in [7]; 31.2 µM (inactive) in [20]; 23.2 µM (inactive) in assay [8]; 64.9 µM (inactive) in assay [9]; 32 µM (inactive) in [11]; 2.35 µM (inactive) in assay [12]. For the same compound, the GI50 was 26.4 µM (inactive) in [13]; 11.6 µM (inactive) in assay [14]; 44 µM (inactive) in assay [15]; 19.4 µM (inactive) in [16]; 30.6 µM (inactive) in assay [17]; 18 µM (inactive) in assay [18]. Besides, the GI50 in assay [19] was 20.4 µM (inactive).
For the compound `OCC1OC(n2cnc3c(Cl)nc(Nc4ccc(Cl)c(Cl)c4)nc32)CC1O` (configuration not stated), the GI50 in [1] is 11 µM (inactive); in assay [3] it was 8.63 µM; in assay [4] it was 10.3 µM (inactive); in [5], 11 µM (inactive); in assay [6], 20.5 µM (inactive); in assay [7], 15.7 µM (inactive). Further, the GI50 was 8.73 µM (inactive) in assay [20]; 14.2 µM (inactive) in assay [8]; 13.3 µM (inactive) in assay [9]; 12.2 µM (inactive) in [10]; 11.6 µM (inactive) in assay [11]; 10.7 µM (inactive) in assay [12]. Further, the GI50 in assay [13] was 10.1 µM (inactive); in assay [14], 8.73 µM (inactive); in [15], 7.98 µM (inactive); in [16], 9.48 µM (inactive); in [17] it was 9.57 µM (inactive); in assay [18], 9.53 µM (inactive). In addition, the GI50 in assay [19] was 10.7 µM (inactive).
Regarding `CCCCCC(=O)N[C@H](C(=O)N[C@H](C(=O)N(C)[C@H](C(=O)N1CCC[C@H]1C(=O)N1CCC[C@H]1C(=O)O[C@H](C(=O)N1C(=O)C=C(OC)[C@@H]1Cc1ccccc1)C(C)C)C(C)C)C(C)C)C(C)C` (Hexanoyl-VV[NMeV]PP-X26), the GI50 in assay [1] was > 100 µM (inactive); in [2], > 100 µM (inactive); in [3], more than 100 µM; in assay [4], > 100 µM (inactive); in assay [5], 48.2 µM (inactive); in assay [7], 19 µM (inactive). In addition, the GI50 was 82.6 µM (inactive) in assay [20]; > 100 µM (inactive) in assay [9]; > 100 µM (inactive) in [10]; 40 µM (inactive) in [11]; 46.3 µM (inactive) in assay [12]; > 100 µM (inactive) in assay [13]. The GI50 in [14] is 57.9 µM (inactive); in [15], > 100 µM (inactive); in assay [16], 87.7 µM (inactive); in assay [17] it was 25.2 µM (inactive); in assay [18] it was 36.3 µM (inactive).
